Laboratory results: ChEMBL document CHEMBL1201862, “PubChem BioAssay data set” (2004)
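Dose response: 5 concentrations. Exposure: 48 h. Format: 96-well plates. Endpoint: linear interpolation; highest concentration if not reached. GI50 is the concentration that inhibits growth by half.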 The source made the active and inactive calls. No stated cut-off is given here; in the data, active = GI50 up to about 1.1 µM and inactive = higher.

Assays:
Test in all cases: NCI-60 cell line screen, 48 h
[1] = test system: 786-0
[2] = test system: A549
[3] = test system: ACHN
[4] = test system: EKVX
[5] = test system: HCT-116
[6] = test system: K562
[7] = test system: LOX IMVI
[8] = test system: Malme-3M
[9] = test system: RPMI-8226
[10] = test system: SK-MEL-2
[11] = test system: SNB-19
[12] = test system: SNB-75
[13] = test system: SW-620
[14] = test system: SF-268
[15] = test system: NCI-H226
[16] = test system: SK-OV-3

Measured: GI50

COc1ccccc1-c1cc(O)c2cc3c(cc2n1)OCO3
inactive: [1] 31.9 µM | [2] 35.6 µM | [3] 83.8 µM | [4] > 100 µM | [5] 28.6 µM | [6] 8.65 µM | [7] 52.4 µM | [8] 6.82 µM | [9] 38.5 µM | [10] 40.8 µM | [11] 45.3 µM | [12] 22.1 µM | [13] 17.7 µM

COC(=O)c1c2c(cc3c1CC1(Cc4cc5c(c(C(C)=O)c4C1)CCC5)C3)CCC2 (centres undefined)
inactive: [1] 42.4 µM | [2] 27.5 µM | [3] 40 µM | [5] 28.6 µM | [6] 35.2 µM | [7] 50.1 µM | [8] 16.4 µM | [14] 67.3 µM | [11] 58.3 µM | [12] 24.6 µM | [13] > 100 µM

Cc1cc(Cl)ccc1N1C(=O)C(=O)C(c2nc3ccccc3s2)C(=O)C1=O
inactive: [1] > 100 µM | [2] > 100 µM | [3] > 100 µM | [4] > 100 µM | [5] > 100 µM | [6] > 100 µM | [8] > 100 µM | [15] > 100 µM | [9] > 100 µM | [14] > 100 µM | [10] > 100 µM | [16] > 100 µM | [11] > 100 µM | [12] > 100 µM | [13] > 100 µM

COc1cc(C(C)O)c[n+](CCc2c[nH]c3ccccc23)c1 (centres undefined)
inactive: [1] > 100 µM | [2] > 100 µM | [3] > 100 µM | [4] 48.3 µM | [5] > 100 µM | [6] > 100 µM | [7] > 100 µM | [8] > 100 µM | [9] > 100 µM | [14] 27.1 µM | [10] > 100 µM | [11] > 100 µM | [12] 89.9 µM | [13] > 100 µM

Cc1c(C(=O)O)n(C)c(=O)n(C)c1=O
inactive: [1] > 100 µM | [2] > 100 µM | [3] > 100 µM | [4] > 100 µM | [5] > 100 µM | [6] > 100 µM | [7] > 100 µM | [8] > 100 µM | [15] > 100 µM | [14] > 100 µM | [10] > 100 µM | [16] > 100 µM | [11] > 100 µM | [12] > 100 µM | [13] > 100 µM

COC1CC(Br)(C#N)C1 (centres undefined)
inactive: [1] > 100 µM | [2] > 100 µM | [4] > 100 µM | [5] > 100 µM | [6] > 100 µM | [8] > 100 µM | [9] > 100 µM | [14] > 100 µM | [10] > 100 µM | [16] > 100 µM

Cn1c(=O)c(C(=O)NC(=O)OCc2ccccc2)cn(CCSCCOC(=O)NCCCCCCNC(=O)OCCSCCn2cc(C(=O)NC(=O)OCc3ccccc3)c(=O)n(C)c2=O)c1=O
inactive: [1] 83.9 µM | [2] > 100 µM | [3] > 100 µM | [4] > 100 µM | [5] > 100 µM | [6] > 100 µM | [7] > 100 µM | [8] > 100 µM | [15] > 100 µM | [9] > 100 µM | [14] 84.9 µM | [10] > 100 µM | [11] 41.2 µM | [12] 17.8 µM | [13] > 100 µM

CC1=NN(C(=O)Cc2ccccc2)C(=O)/C1=C\c1cccc(O)c1
inactive: [1] > 100 µM | [2] > 100 µM | [3] > 100 µM | [4] > 100 µM | [5] > 100 µM | [6] > 100 µM | [7] > 100 µM | [8] > 100 µM | [15] > 100 µM | [9] > 100 µM | [14] > 100 µM | [10] > 100 µM | [11] > 100 µM | [12] > 100 µM | [13] > 100 µM

NC1=NN(c2ccccc2)C(=O)C1C(=O)C(=O)NC1C2CC3CC(C2)CC1C3 (centres undefined)
inactive: [1] > 100 µM | [2] > 100 µM | [3] > 100 µM | [4] > 100 µM | [5] > 100 µM | [6] > 100 µM | [7] > 100 µM | [8] > 100 µM | [15] > 100 µM | [14] > 100 µM | [10] > 100 µM | [16] 24.9 µM | [11] > 100 µM | [13] > 100 µM

CN(C)Cc1[nH]c2ccccc2c1C(=O)c1ccccc1
inactive: [1] > 100 µM | [2] > 100 µM | [3] > 100 µM | [5] > 100 µM | [6] 91.6 µM | [8] > 100 µM | [15] > 100 µM | [9] 66.2 µM | [14] > 100 µM | [10] > 100 µM | [11] > 100 µM | [12] 21.9 µM | [13] > 100 µM

O=[PH](O)c1cccnc1
inactive: [1] > 100 µM | [2] > 100 µM | [3] > 100 µM | [4] > 100 µM | [5] > 100 µM | [6] > 100 µM | [7] > 100 µM | [8] > 100 µM | [15] > 100 µM | [9] > 100 µM | [14] > 100 µM | [16] > 100 µM | [11] > 100 µM | [12] > 100 µM | [13] > 100 µM

C/C(=N\NC(=O)CC(=O)N(C(=O)c1ccc(Cl)cc1)c1ccc(C)cc1)c1ccccc1O
inactive: [1] 13.4 µM | [2] 35.6 µM | [3] 45.6 µM | [4] 6.79 µM | [5] 62.2 µM | [6] > 100 µM | [8] > 100 µM | [15] 77.6 µM | [9] > 100 µM | [14] 28.1 µM | [10] > 100 µM | [16] > 100 µM | [11] 59.4 µM | [12] 18.2 µM | [13] > 100 µM

CC(=O)/C(=C\c1ccccc1O)C(=O)Nc1ccccc1C
inactive: [1] 15.4 µM | [2] 20.5 µM | [3] 17.5 µM | [4] 36 µM | [5] 24.4 µM | [6] 4.06 µM | [7] 14.3 µM | [8] 17.5 µM | [15] 27.4 µM | [9] 15 µM | [14] 26 µM | [10] 18.9 µM | [16] 51.9 µM | [11] 20.7 µM | [13] 20.7 µM

N#Cc1ccc(C2SCc3nc4ccccc4n32)cc1 (centres undefined)
inactive: [1] > 100 µM | [2] 81.8 µM | [3] 63.8 µM | [4] 69.3 µM | [5] 44.8 µM | [6] 41.6 µM | [8] > 100 µM | [9] 49.8 µM | [14] > 100 µM | [10] > 100 µM | [16] > 100 µM | [11] 81.7 µM | [12] 38.5 µM | [13] > 100 µM
